The text below walks through data of article PMC10363981, “Optimizing the enzymatic release of MMAE from isoDGR-based small molecule drug conjugate by incorporation of a GPLG-PABC enzymatically cleavable linker” (Frontiers in Pharmacology, 2023).

One test relates to U87MG cells. The experiment in a line: In vitro antiproliferative activity in the presence of MMP-2 inhibitor. As to conditions: 16 h pre-incubation with MMP-2 inhibitor 10 µM, then 72 h continuous treatment, 5% serum final; average ± SD, triplicate; read-out: IC50 MMP-2 inhibitor + Treatment 72 h U87MG (αVβ3 +). In kind it is cell-based, human. Here is the method:
(§1) For the evaluation of the in vitro antiproliferative activity of compounds, the cell viability was determined by MTT assay (3-(4,5-dimethylthiazol-2-yl)-2,5-diphenyl-tetrazolium bromide) obtained from Duchefa Biochemie (Haarlem, Netherlands).
(§2) 22 µL of MTT solution (5 mg/mL in PBS, 0.5 mg/mL final) was added to each well and after 2 h incubation at 37°C, the supernatant was removed. The precipitated purple formazan crystals were dissolved in 100 µL of a 1:1 solution of dimethylsulfoxide (DMSO; Merck, St. Louis, MO, United States): 96% Ethanol (Molar Chemicals Kft., Halásztelek, Hungary) and the absorbance was measured after 15 min at λ = 570 nm by using microplate reader CLARIOstar Plus (BMG Labtech, Ortenberg, Germany). Average background absorbance (DMSO-Ethanol) was subtracted from absorbance values of control and treated wells, and cell viability was determined relative to untreated (control) wells where cell viability was arbitrarily set to 100%. Absorbance values of treated samples were normalized versus untreated control samples and interpolated by nonlinear regression analysis with GraphPad Prism 6 software (GraphPad, La Jolla, San Diego, CA, United States) to generate sigmoidal dose-response curves from which the 50% inhibitory concentration (IC50) values of the compounds were calculated and presented as nanomolar (nM) units. The experiments were done in triplicate and each experiment was repeated three times.
(§3) The conjugate 2 and the free MMAE were tested in presence of the MMP-2 inhibitor cis-9-octadecenoyl-N-hydroxylamine (Merck) dissolved in DMSO ([You et al., 2018]). The three αVβ3 integrin and MMP-2 overexpressing cancer cell lines (U87MG, SK-MEL-28, […]) were seeded with serum containing medium ([Ellijimi et al., 2018]; [Shim et al., 2019]) and, after 8 h, were washed-out. Then, 100 µL per well of MMP-2 inhibitor (10 µM final concentration) were added and cells were incubated for 16 h, prior to the treatment. Later, the conjugate 2 and free MMAE were dissolved in 10% serum containing medium and added to reach the same concentrations evaluated in the previous test in a final volume of 100 µL per well and incubated (5% serum final) continuously for 72 h of the treatment. The experiments were performed in triplicate.

In a further test the test system is SK-OV-3 cells. Described as above. In kind it is cell-based, human. Particulars: 16 h pre-incubation with MMP-2 inhibitor 10 µM, then 72 h continuous treatment, 5% serum final; average ± SD, triplicate; read-out: IC50 MMP-2 inhibitor + Treatment 72 h SK-OV-3 (αVβ3 +). Here is the method:
as §1, §2, §3

A further test has as its system SK-MEL-28 cells. The description is as above. Particulars: 16 h pre-incubation with MMP-2 inhibitor 10 µM, then 72 h continuous treatment, 5% serum final; average ± SD, triplicate; read-out: IC50 MMP-2 inhibitor + Treatment 72 h SK-MEL-28 (αVβ3 +). In kind it is cell-based, human. Here is the method: as §1, §2, §3
Test [1] has as its system SK-MEL-28 human melanoma cells. Briefly: In vitro antiproliferative activity, MTT, 72 h continuous treatment (no-washout). In kind it is cell-based. Here is the method:
(§4) U87MG human malignant glioma, SK-MEL-28 human melanoma, SK-OV-3 human ovarian cancer, and A549 human lung cancer cell lines were purchased from ATCC. The cells were cultured in Dulbecco’s Modified Eagle’s Medium (DMEM; Biosera, Nuaille, France), supplemented with 10% heat-inactivated Fetal Bovine Serum (FBS; Biosera), and with 1% Penicillin/Streptomycin (Biosera). Cells were cultured in sterile T75 flasks with ventilation cap (Sarstedt, Nümbrecht, Germany) at 37 °C in a humidified atmosphere with 5% CO2 in ESCO CelCulture Incubator (ESCO, Friedberg, Germany). Manipulations with the cells were performed in biosafety cabinet (laminar) ESCO Sentinel Gold class II model AC2-4E8 (ESCO).
(§5) After standard trypsinization and harvesting cells by trypsin (Biosera), ethylenediaminetetraacetic acid (EDTA; Biosera) and PBS solution, 6×10^3 cells per well were seeded in serum containing (10%) growth medium to 96-well plates with flat bottom (Eppendorf, Hamburg, Germany), in a 100 μL volume per well, and incubated at 37°C.
(§6) […] The control wells were treated only with serum free medium (5% serum final).
as §1
(§7) 22 µL of MTT solution (5 mg/mL in PBS, 0.5 mg/mL final) was added to each well and after 2 h incubation at 37°C, the supernatant was removed. […] Average background absorbance (DMSO-Ethanol) was subtracted from absorbance values of control and treated wells, and cell viability was determined relative to untreated (control) wells where cell viability was arbitrarily set to 100%. […] The experiments were done in triplicate and each experiment was repeated three times.

For test [2], the system named is U87MG human malignant glioma cells. The test is described as above. In kind it is cell-based. Here is the method: as §4, §5, §6, §1, §7
The mark [3] stands for this setting: MTT, 72 h continuous treatment, no washout, 5% serum final, triplicate, repeated three times.
Setting [4] is: relative potency = ratio of IC50 of 2 vs MMAE, 72 h no washout.

As for `CC[C@H](C)[C@@H]([C@@H](CC(=O)N1CCC[C@H]1[C@H](OC)[C@@H](C)C(=O)N[C@H](C)[C@@H](O)c1ccccc1)OC)N(C)C(=O)[C@@H](NC(=O)[C@H](C(C)C)N(C)C(=O)OCc1ccc(NC(=O)CNC(=O)[C@H](CC(C)C)NC(=O)[C@@H]2CCCN2C(=O)CNC(=O)CCc2cn(CCOCCOCCOCCOCC(=O)NCc3ccc(CN4C(=O)[C@H]5CC(=O)N[C@H](C(=O)O)CC(=O)NCC(=O)N[C@@H](CCCNC(=N)N)C(=O)NC[C@H]4C(=O)N5)cc3)nn2)cc1)C(C)C` [compound 2, cyclo[DKP-isoDGR]-PEG4-GPLG-PABC-MMAE], the IC50 (usually the concentration at which inhibition is half-maximal) in the test with U87MG cells came out at 7.4 nM; in the test on SK-OV-3 cells it was 3.2 nM; in the test on SK-MEL-28 cells, 28.7 nM; in test [1] (setting [3]), 70.4 ± 7.1 nM; in test [2] (setting [3]), 7.5 ± 0.9 nM. For the same compound, the “RP [SMDC (2)/MMAE] SK-MEL-28” value in test [1] (setting [4]) was 29.49. Also, in test [2] (setting [4]), the “RP [SMDC (2)/MMAE] U87MG” value came out at 33.30.
